Laboratory results as given in patent US12053527B2, “Compositions with permeation enhancers for drug delivery” (priority 2015, dated 2024).

Experiments:
[1] = Linear oscillatory shear rheology (gelation temperature, storage and loss moduli); conditions: for reduction of gelation temperature: CPE added separately to Cip-18% [P407-PBP] (1% SDS, 2% limonene or 0.5% bupivacaine); for effect on plateau values of G′ and G″ / mechanical properties and gelation temperature: CPE added separately to Cip-18% [P407-PBP]
[2] = Ex vivo permeation of ciprofloxacin across the tympanic membrane
S. pneumoniae = conditions: cited from earlier work
[3] = Pharmacokinetics in the OM model: ciprofloxacin in middle ear fluid and plasma; format: in vivo, chinchilla; conditions: animals treated with the standard formulation
[4] = test system: non-typable H. influenzae (NTHi); conditions: cited from earlier work
[5] = 2% limonene added to Cip-18% [P407-PBP]

C=C(C)[C@H]1CC=C(C)CC1 [limonene]
decrease of G″ [1, 5]: 4.1 kPa | increase of G′ [1, 5]: 10.5 kPa | reduction of gelation temperature [1]: 14 °C | concentration-dependent increase in ciprofloxacin transfer ([2]; 48 hours, limonene added): two-to-three-fold | time at which ciprofloxacin was detected in the receiving buffer ([2]; limonene added to ciprofloxacin): 1 to 2 h

CCCCCCCCCCCCOS(=O)(=O)[O-].[Na+] [SDS, Sodium dodecyl sulfate]
effect on plateau values of G′ and G″ / mechanical properties and gelation temperature [1]: did not affect | reduction of gelation temperature [1]: ~1.5 °C

O=C(O)c1cn(C2CC2)c2cc(N3CCNCC3)c(F)cc2c1=O [ciprofloxacin]
MIC for S. pneumoniae (S. pneumoniae): 0.5 to 4 µg/mL | minimum inhibitory concentration for S. pneumoniae middle ear infections (S. pneumoniae): about 4 μg/mL | ciprofloxacin in the blood [3]: undetectable | MIC for non-typable H. influenzae (NTHi) [4]: <0.1 to 0.5 µg/mL | minimum inhibitory concentration (MIC) of NTHi [4]: 0.1 to 0.5 µg/mL | minimum inhibitory concentration for H. influenza middle ear infections [4]: about 4 μg/mL

CCCCN1CCCCC1C(=O)Nc1c(C)cccc1C (centres unmarked) [Bupivacaine]
effect on plateau values of G′ and G″ / mechanical properties and gelation temperature [1]: minimal effects
